According to patent US9878982B2, “Pyridine derivatives and anti-mycobacterial use thereof” (priority 2014, dated 2018):
In brackets after ≈: the same amount, converted by molar mass.

How the values were obtained:
[1] = Hela cell cytotoxicity (CC50); conditions: human, HeLa cells (human cervical cancer cells), CC50_Hela, half of the toxic concentration
M. tuberculosis H37Rv = assay: In vitro efficacy test using the H37Rv strain, Microplate Alamar Blue Assay (MABA) MIC; assay type: cell-based, Mycobacterium tuberculosis; conditions: Mycobacterium tuberculosis, H37RV, aerobic; 7H9 medium, Alamar Blue; read-out: M. tuberculosis H37Rv MABA (MIC)
M. tuberculosis H37R = assay: microbe, parasite or virus in culture; assay type: cell-based, Mycobacterium tuberculosis; conditions: Mycobacterium tuberculosis, H37R; read-out: M. tuberculosis H37R LORA (MIC)
Vero Cell = assay: Vero cell cytotoxicity (IC50); assay type: cell-based; conditions: Chlorocebus sabaeus, Vero, African green monkey kidney cells
[2] = tested on: Mycobacterium smegmatis strain ATCC19420; assay: In vitro efficacy test using Mycobacterium smegmatis strain ATCC19420 (MIC); assay type: cell-based; conditions: Mycolicibacterium smegmatis, ATCC19420, 72 h, CA-MHB + 0.02% Tween 80, 30° C., read after 72 hours

Compound | CC50 [1] | MIC (M. tuberculosis H37Rv) | MIC (M. tuberculosis H37R) | IC50 (Vero Cell) | MIC [2]
COc1ccc(C(c2cc(-c3ccccc3)cnc2OC)C(O)(CCN(C)C)c2ccccc2)cc1 (centres unmarked) [Compound 237, 4-(dimethylamino)-1-(2-methoxy-5-phenylpyridin-3-yl)-1-(4-methoxyphenyl)-2-phenylbutan-2-ol] | 15.6 µg/mL (≈ 32.4 µM) | 1.89 µg/mL (≈ 3.92 µM) | 3.07 µg/mL (≈ 6.36 µM) | 24.3 µg/mL (≈ 50.3 µM) | 0.5 µg/mL
COc1ncc(-c2csc(Cl)c2)cc1C(c1ccccc1)C(O)(CCN(C)C)c1cccc2ccccc12 (centres unmarked) [Compound 245, 1-(5-(5-chlorothiophen-3-yl)-2-methoxypyridin-3-yl)-4-(dimethylamino)-2-(naphthalen-1-yl)-1-phenylbutan-2-ol] | > 64 µg/mL | 0.86 µg/mL (≈ 1.58 µM) | 1.39 µg/mL (≈ 2.56 µM) | > 32 µg/mL | ≤ 0.0625 µg/mL
COc1ncc(-c2ccsc2Cl)cc1C(c1ccccc1)C(O)(CCN(C)C)c1cccc2ccccc12 (centres unmarked) [Compound 251, 1-(5-(2-chlorothiophen-3-yl)-2-methoxypyridin-3-yl)-4-(dimethylamino)-2-(naphthalen-1-yl)-1-phenylbutan-2-ol] | > 64 µg/mL | 0.64 µg/mL (≈ 1.18 µM) | 1.39 µg/mL (≈ 2.56 µM) | > 32 µg/mL | 0.25 µg/mL
COc1ncc(C2CCSCC2)cc1C(c1ccccc1)C(O)(CCN(C)C)c1cccc2ccccc12 (centres unmarked) [Compound 255, 4-(dimethylamino)-1-(2-methoxy-5-(tetrahydro-2H-thiopyran-4-yl)pyridin-3-yl)-2-(naphthalen-1-yl)-1-phenylbutan-2-ol] | > 64 µg/mL | 0.48 µg/mL (≈ 0.911 µM) | 8.33 µg/mL (≈ 15.8 µM) | > 32 µg/mL | 0.25 µg/mL
COc1ncc(C2=CCSCC2)cc1C(c1ccccc1)C(O)(CCN(C)C)c1cccc2ccccc12 (centres unmarked) [Compound 259, 1-(5-(3,6-dihydro-2H-thiopyran-4-yl)-2-methoxypyridin-3-yl)-4-(dimethylamino)-2-(naphthalen-1-yl)-1-phenylbutan-2-ol] | > 64 µg/mL | 0.32 µg/mL (≈ 0.61 µM) | 4.33 µg/mL (≈ 8.25 µM) | > 32 µg/mL | 0.125 µg/mL
CC#Cc1cnc(OC)c(C(c2ccccc2)C(O)(CCN(C)C)c2cccc3ccccc23)c1 (centres unmarked) [Compound 263, 4-(dimethylamino)-1-(2-methoxy-5-prop-1-ynyl-3-pyridyl)-2-(1-naphthyl)-1-phenylbutan-2-ol] | > 64 µg/mL | 1.38 µg/mL (≈ 2.97 µM) | 2.08 µg/mL (≈ 4.48 µM) | > 32 µg/mL | 0.5 µg/mL
COc1ncc(N2CCOCC2)cc1C(c1ccccc1)C(O)(CCN(C)C)c1cccc2ccccc12 (centres unmarked) [Compound 269, 4-(dimethylamino)-1-(2-methoxy-5-morpholinopyridin-3-yl)-2-(naphthalen-1-yl)-1-phenylbutan-2-ol] | 17.4 µg/mL (≈ 34.1 µM) | 5.64 µg/mL (≈ 11 µM) | 6.3 µg/mL (≈ 12.3 µM) | > 32 µg/mL | 0.25 µg/mL
COc1ncc(-c2ccc(Cl)cc2)cc1C(c1ccccc1)C(O)(CCN(C)C)c1cc(F)cc(F)c1 (centres unmarked) [Compound 280, 1-(5-(4-chlorophenyl)-2-methoxypyridin-3-yl)-2-(3,5-difluorophenyl)-4-dimethylamino-1-phenylbutan-2-ol] | 35 µg/mL (≈ 66.9 µM) | 0.04 µg/mL (≈ 0.0765 µM) | 0.16 µg/mL (≈ 0.306 µM) | > 32 µg/mL | 0.0156 µg/mL
COc1ncc(-c2ccc(C(F)(F)F)cc2)cc1C(c1ccccc1)C(O)(CCN(C)C)c1cccc2ccccc12 (centres unmarked) [Compound 285, 4-(dimethylamino)-1-(2-methoxy-5-(4-(trifluoromethyl)phenyl)pyridin-3-yl)-2-(naphthalen-1-yl)-1-phenylbutan-2-ol] | > 64 µg/mL | 0.96 µg/mL (≈ 1.68 µM) | 0.63 µg/mL (≈ 1.1 µM) | > 32 µg/mL | 0.0156 µg/mL
COc1ncc(-c2ccc(Cl)cc2)cc1C(c1ccccc1)C(O)(CCN(C)C)c1cccc(F)c1F (centres unmarked) [Compound 287, 1-(5-(4-chlorophenyl)-2-methoxy-3-pyridyl)-2-(2,3-difluorophenyl)-4-dimethylamino-1-phenylbutan-2-ol] | > 64 µg/mL | 0.04 µg/mL (≈ 0.0765 µM) | 0.16 µg/mL (≈ 0.306 µM) | > 32 µg/mL | 0.0312 µg/mL
